Molecules are shown by their SMILES. Records with an inconclusive call do not appear. Activity calls are given as the source filed them. How the calls were made is not given here.

This data set concerns S. typhimurium/E. coli reverse mutation, colony counts. The data set is described as follows: Bacterial reverse mutation test (aka Ames test) summary data. In outline: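 S. typhimurium his⁻ strains (TA97–TA1538) and E. coli WP2 uvrA pKM101 trp⁻, dosed over a range with or without rat, hamster or mouse liver S9. Preincubated 20 min at 37° C (or plate incorporation), plated in agar, incubated usually two days. Revertant colonies counted against negative controls.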
In general terms: In the Ames test, an excess of revertant colonies over the control signals mutagenicity.
`CN(C)c1ccc2nc3ccc(=[N+](C)C)cc-3sc2c1`: the outcome was “active; positive”. In the case of `O=Nc1ccc(NO)cc1` it was “active; positive”; in that of `O=C(O)C=Cc1ccc(O)c(O)c1`, “inactive; negative”; in that of `O=NN(CCO)CCO`, “active; positive”. In the case of `O=CNc1nc(-c2ccc([N+](=O)[O-])o2)cs1` it was “active; positive”. In the case of `O=Cc1ccc(Cl)c(Cl)c1` it was “inactive; negative”; in that of `O=C(c1ccccc1)C(O)c1ccccc1` (stereo not drawn), “active; weakly positive”. Take `O=CNc1ccccc1`: the outcome was “inactive; negative”. As for `CC1(C)C(=O)N(Cl)C(=O)N1Cl`, the outcome was “inactive; negative”. In the case of `C=CCc1ccc(OC)c(OC)c1` it was “inactive; negative”.

On to `O=C(Cc1ccccc1)OCc1ccccc1`, for which the outcome is “inactive; negative”.

Regarding `Cc1ccc([N+](=O)[O-])cc1C`, the outcome was “active; positive”. In the case of `COc1ccc(C(=O)c2ccccc2)c(O)c1` it was “active; weakly positive”. Turning to `CNC(=O)CSP(=S)(OC)OC`, the outcome is “active; positive”. For `Cc1ccc(C)c(N)c1`, the outcome was “active; positive”.

Turning to `N#CCCC(Br)(C#N)CBr` (stereo not drawn), the outcome is “inactive; negative”. In the case of `CN(C)CCOC(C)(c1ccccc1)c1ccccn1` (stereo not drawn) it was “inactive; negative”; in that of `CCN(CC)CCN1C(=O)CN=C(c2ccccc2F)c2cc(Cl)ccc21`, “inactive; negative”; in that of `C1CCC2CCCCC2C1` (stereo not drawn), “inactive; negative”.

As for `CC(C)[N+](=O)[O-]`, the outcome is “active; positive”. In the case of `Cc1ccc(OCC2CO2)cc1` (stereo not drawn) it was “active; positive”.

Turning to `CCN(CC)CC`, the outcome is “inactive; negative”.

As for `Cc1cccc(C(=O)O)c1`, the outcome is “inactive; negative”.

`S=C(NC1CCCCC1)NC1CCCCC1`: the outcome was “inactive; negative”. On to `CCCCC/C=C\C/C=C\CCCCCCCC(=O)O`, for which the outcome is “inactive; negative”. In the case of `O=[N+]([O-])c1cc([N+](=O)[O-])c2ccccc2c1` it was “active; positive”. In the case of `CCCNC(C)C(=O)Nc1ccccc1C` (stereo not drawn) it was “inactive; negative”; in that of `Cc1ccc(C(=O)O)cc1`, “inactive; negative”; in that of `O=C(O)C(Cl)Cl`, “active; positive”. For `O=[N+]([O-])c1cccc(O)c1` the value was “active; weakly positive”; for `CCCCCCCCCCCOC(=O)c1ccccc1C(=O)OCCCCCCCCCCC`, “inactive; negative”. For the compound `CCCCOCCOCCOCc1cc2c(cc1CCC)OCO2`, the outcome is “inactive; negative”. In the case of `c1ccncc1` it was “inactive; negative”; in that of `C/C=C/C=C/C(=O)O`, “inactive; negative”.

In the case of `COCCOCCOC`, the outcome is “inactive; negative”.

On to `CC(=O)NNc1ccccc1`, for which the outcome was “active; positive”.

`O=[N+]([O-])c1ccccc1Nc1ccccc1`: the outcome was “inactive; negative”.

For the compound `CC(=O)CC(N)=O`, the outcome is “active; positive”. Regarding `OCCO`, the outcome is “inactive; negative”. In the case of `CCCCOP(=O)(OCCCC)Oc1ccccc1` it was “inactive; negative”; in that of `O.O.O.O.O.O.O=[N+]([O-])[O-].O=[N+]([O-])[O-].O=[N+]([O-])[O-].[La+3]`, “inactive; negative”. For `CCCN(CCC)C(=O)CN` the value was “active; positive”; for `CN(C(=O)CN(CCO)CC(=O)N(C)C(C)(C)Cc1ccccc1)C(C)(C)Cc1ccccc1`, “inactive; negative”; for `O=[N+]([O-])c1ccc2c3c(cccc13)CC2`, “active; positive”. In the case of `O=C(O)COc1ccc(Cl)cc1Cl` it was “inactive; negative”. Consider `S=[Se]`, for which the outcome was “active; positive”.

In the case of `COc1ccc(OC)c(N=Nc2c(O)ccc3ccccc23)c1`, the outcome is “active; positive”.

For the compound `CCCCCCCC(=O)Cl`, the outcome was “active; positive”. In the case of `COc1ccc(C=O)cc1` it was “inactive; negative”; in that of `C=CCc1ccc(O)c(OC)c1`, “inactive; negative”. `ClC(Cl)=C(Cl)Cl`: the outcome was “inactive; negative”.

For `Nc1ccccc1N`, the outcome was “active; positive”. In the case of `Oc1cccc(Nc2ccccc2)c1` it was “inactive; negative”; in that of `CNNC`, “inactive; negative”; in that of `CCOC(=O)c1ccccc1C(=O)OCC`, “inactive; negative”.

For the compound `O.O.O.O.O.O.O=S(=O)([O-])[O-].[Ni+2]`, the outcome was “inactive; negative”.

Consider `C[C@@H]1C[C@@H]([C@H](O)CC2CC(=O)NC(=O)C2)C(=O)[C@@H](C)C1`, for which the outcome is “inactive; negative”. For `O=C(CO)CO` the value was “active; positive”; for `CC(=O)OCCOCCOCCOC(C)=O`, “active; positive”. In the case of `Cc1ccc(C)o1` it was “inactive; negative”. In the case of `C[n+]1cccc(C(=O)[O-])c1` it was “inactive; negative”; in that of `OC(O)C(Cl)(Cl)Cl`, “active; positive”. Take `OCCN1CN(CCO)CN(CCO)C1`: the outcome was “active; positive”. In the case of `O=C(O)C(F)(F)C(F)(F)C(F)(F)C(F)(F)C(F)(F)C(F)(F)C(F)(F)C(F)(F)F` it was “inactive; negative”. For `CC(C)CC(=O)CC(C)C` the value was “inactive; negative”.

As for `CCCCC(CC)CN` (stereo not drawn), the outcome is “inactive; negative”.

On to `CC(C)O`, for which the outcome was “inactive; negative”.

Turning to `Nc1cc([N+](=O)[O-])ccc1O`, the outcome is “active; positive”. For `N[C@@H](Cc1c[nH]c2ccc(O)cc12)C(=O)O` the value was “inactive; negative”; for `C=CC(=O)NCNC(=O)C=C`, “active; positive”. In the case of `COc1ccccc1C=CC=O` it was “active; weakly positive”; in that of `COc1cc(-c2ccc(N=Nc3c(S(=O)(=O)O)cc4cc(S(=O)(=O)O)cc(O)c4c3O)c(OC)c2)ccc1N=Nc1c(S(=O)(=O)O)cc2cc(S(=O)(=O)O)cc(O)c2c1O`, “inactive; negative”; in that of `COc1cc(-c2ccc(N=Nc3cc(S(=O)(=O)O)c4ccccc4c3O)c(OC)c2)ccc1N=Nc1cc(S(=O)(=O)O)c2ccccc2c1N`, “inactive; negative”. For `COC(=O)CCC(=O)OC` the value was “inactive; negative”; for `COP(=O)(OC)C(O)C(Cl)(Cl)Cl` (stereo not drawn), “active; weakly positive”. In the case of `Clc1ccccc1`, the outcome was “inactive; negative”. For the compound `Cc1cc(-c2ccc(N=Nc3c(S(=O)(=O)O)cc4cc(S(=O)(=O)O)cc(O)c4c3O)c(C)c2)ccc1N=Nc1c(S(=O)(=O)O)cc2cc(S(=O)(=O)O)cc(O)c2c1O`, the outcome is “inactive; negative”. In the case of `CN(C)N=O` it was “active; positive”; in that of `CNC=O`, “inactive; negative”; in that of `COC(=O)CCCCC(=O)OC`, “inactive; negative”. In the case of `CCN(CC)CCO` it was “inactive; negative”; in that of `COc1cccc2sc(N)nc12`, “active; positive”. In the case of `COc1ccc(N)c(OC)c1`, the outcome is “active; positive”. In the case of `CCCCC(C=O)CC` (stereo not drawn) it was “inactive; negative”; in that of `CN(C)CCN(C)C`, “inactive; negative”; in that of `NC(N)=NC(=O)c1nc(Cl)c(N)nc1N`, “active; positive”. For `Nc1n[nH]c(N)n1` the value was “inactive; negative”. For `CC(O)CCl` (stereo not drawn) the value was “active; positive”; for `Cc1c(O)c(Br)c(Br)c(Br)c1Br`, “inactive; negative”; for `OCCNCCO`, “inactive; negative”. Take `CCCCCCCCCCCCCCCCCCN`: the outcome is “inactive; negative”. For `Cc1ccccc1Br` the value was “inactive; negative”; for `[O-]/[N+](=N\O)c1ccccc1`, “active; positive”. For `CCCCCCCCOP(=O)(OCCCCCCCC)OCCCCCCCC` the value was “inactive; negative”. With `CCOC(=O)CC(C)O` (stereo not drawn), the outcome is “inactive; negative”. In the case of `O=CC(Cl)(Cl)Cl` it was “active; weakly positive”; in that of `CNN`, “inactive; negative”; in that of `COC(C)=O`, “inactive; negative”. In the case of `CCCCOC(=O)c1ccccc1C(=O)OC1CCCCC1` it was “inactive; negative”; in that of `Nc1ccc([N+](=O)[O-])cc1N`, “active; positive”; in that of `[K+]`, “inactive; negative”. In the case of `Oc1cc2c(cc1O)[C@@H]1c3ccc(O)c(O)c3OC[C@]1(O)C2` it was “inactive; negative”; in that of `O=[N+]([O-])c1cc(Cl)c(Cl)cc1Cl`, “active; positive”; in that of `Nc1ccc(Cl)cc1N`, “active; positive”. For `CCCCCCCCCCCCCC(=O)O`, the outcome is “inactive; negative”. In the case of `Clc1nc(Cl)nc(Nc2ccccc2Cl)n1` it was “inactive; negative”.

As to `CCCCCCOc1ccc(O)cc1`, the outcome is “inactive; negative”. With `CCN(CC)c1ccc(C(=C2C=CC(=[N+](CC)CC)C=C2)c2ccc(S(=O)(=O)O)cc2S(=O)(=O)[O-])cc1`, the outcome was “active; positive”. For `O=[N+]([O-])c1ccccc1CCl` the value was “active; positive”; for `CN(C)c1nc(=O)n(C2CCCCC2)c(=O)n1C`, “inactive; negative”. In the case of `COc1ccc(CN(CCN(C)C)c2ncccn2)cc1` it was “inactive; negative”; in that of `CC1CO1` (stereo not drawn), “active; positive”; in that of `O=[N+]([O-])c1c(O)c(Cl)cc(Cl)c1Cl`, “inactive; negative”.

(Values after PubChem BioAssay AID2202554 (NIEHS Division of Translational Toxicology (DTT)).)
